Data set [1] can be described thus: Drug uptake in HUVEC cells incubated for 30 mins by flow cytometry. It counts as ADME, cell-based. The settings on record: human, 0.5 h, dose 5-20 µM.
Data set [2] concerns HaCaT. The data set is described as follows: Drug uptake in Aprepitant-treated human HaCaT cells 5 to 20 uM incubated for 30 mins by flow cytometry. It counts as functional, cell-based. The settings on record: dose 5-20 µM.
Data set [3] is described as follows: Drug uptake in mouse RAW264.7 cells by flow cytometry. It is filed as ADME, cell-based. The settings on record: dose 2.5-40 µM. (In general: In flow cytometry, cells or beads pass a laser one at a time.)
The subject of data set [4] is HaCaT. As to the kind of experiment: Drug uptake in human HaCaT cells incubated for 30 mins by flow cytometry. It is filed as functional, cell-based. Conditions: dose 5-20 µM.
Data set [5] in a line: Drug uptake in Aprepitant-treated HUVEC cells at 5 to 20 uM incubated for 30 mins by flow cytometry. It is filed as ADME, cell-based. Conditions: human, 0.5 h, dose 5-20 µM.
A short description of data set [6]: Drug uptake in Aprepitant-treated mouse RAW264.7 cells at 20 uM incubated for 30 mins by flow cytometry. The settings on record: raw264.7, 0.5 h. It counts as ADME, cell-based.
Data set [7] can be described thus: Drug uptake in Aprepitant-treated BALB/c mouse neutrophils at 20 uM incubated for 30 mins by flow cytometry. It is filed as ADME, cell-based. The settings on record: neutrophil, 0.5 h.
A short description of data set [8]: Drug uptake in BALB/c mouse neutrophils by flow cytometry. It counts as ADME, cell-based. Conditions: neutrophil, dose 2.5-40 µM.
Data set [9] has as its system Neutrophil. The data set is described as follows: Induction of chemotaxis in BALB/c mouse neutrophils assessed as increase in ratio of cell polarization at 100 nM measured for 15 mins by Zigmond-chamber based microscopy (reference value: 14.6 %). It counts as functional. The settings on record: 0.25 h.
Data set [10] deals with Neutrophil. As to the kind of experiment: Induction of ROS production in BALB/c mouse neutrophils at 100 nM incubated for 2 hrs by DCFH-DA staining based analysis. It counts as functional, cell-based.

Calls of active or inactive are those of the source. The calls are words filed in the database; no cut-off is given here. Residues, ends and D or L forms follow the SMILES beside them.

Consider `CSCC[C@H](NC(=O)[C@H](CC(C)C)NC(=O)CNC(=O)[C@H](Cc1ccc(O)cc1)NC(=O)[C@H](Cc1ccccc1)NC(=O)[C@H](CCCNC(=N)N)NC(=O)[C@H](CC(=O)O)NC(=O)[C@@H]1CCCN1C(=O)[C@H](CC(N)=O)NC(=O)[C@@H]1CCCN1C(=O)[C@H](CCCCN)NC(=S)Nc1ccc(-c2c3ccc(=O)cc-3oc3cc(O)ccc23)c(C(=O)O)c1)C(N)=O` (HELM PEPTIDE1{[O=C(O)c1cc(NC(=S)[*:2])ccc1-c1c2ccc(=O)cc-2oc2cc(O)ccc12].K.P.N.P.D.R.F.Y.G.L.M.[am]}$$$$V2.0), for which the Drug uptake entry in data set [1] was “Dose-Dependent Effect”; in [3], “Dose-Dependent Effect”; in the data set on HaCaT [4], “Dose-Dependent Effect”; in [5], “Not Active”; in data set [6], “Not Active”; in data set [7] it was “Not Active”. Besides, the Drug uptake entry in [8] is given as “Dose-Dependent Effect”. Further, in the data set with HaCaT [2], the Drug uptake entry was “inactive”.

On to `CSCC[C@H](NC=O)C(=O)N[C@@H](CC(C)C)C(=O)N[C@@H](Cc1ccccc1)C(=O)O`, for which, in the data set on Neutrophil [9], the Activity is 56.3%.

`CCCCCCCCCCCCCC(=O)O[C@@H]1[C@@H](C)[C@]2(O)[C@@H](C=C(CO)C[C@]3(O)C(=O)C(C)=C[C@@H]23)[C@@H]2C(C)(C)[C@]12OC(C)=O`: in the data set on Neutrophil [10], the result was Active.

These data come from ChEMBL document CHEMBL5375968, “Peptide TK-HR from the Skin of Chinese Folk Medicine Frog Hoplobatrachus Rugulosus Accelerates Wound Healing via the Activation of the Neurokinin-1 Receptor” (J Med Chem, 2023).
